Results published in patent US20250353873A1, “COMPOUNDS AND METHODS FOR MODULATING APOE EXPRESSION” (Ionis Pharmaceuticals, Inc., priority 2024, published 2025).
Strand notation (5' to 3'): a small letter for the sugar, then the base; units joined by * are phosphorothioate-linked, units joined directly phosphodiester-linked; [ ] holds rarer units or linkages, { } end groups; capitals alone tell only the bases. [ms] = mesyl phosphoramidate linkage; k = constrained ethyl (cEt); [5mC] = 5-methylcytosine; d = 2'-deoxy (DNA)

Experiments:
human APOE RNA [1] = assay: Dose-dependent inhibition of human APOE RNA in HepG2 cells, electroporation, 50,000 cells per well, RT-PCR normalized to GAPDH (Example 4, Tables 8-10); type: cell-based; conditions: HepG2, electroporation, 24-hour treatment
How it was run: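 Readout is percent APOE RNA versus untreated controls, measured by RT-PCR (primer probe set RTS3073) and normalized to human GAPDH. Modified oligonucleotides were delivered by electroporation at varying doses into HepG2 cells plated at 50,000 per well.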

human APOE RNA [2] = assay: Activity in APOE C57BL/6NTac-Apoeem7250 knock-in mice, single ICV bolus, 4 weeks (Example 10); type: in vivo; conditions: single ICV bolus 300 μg, 4 weeks post treatment, normalized to mouse Ppia
How it was run: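 Human APOE RNA, quantified by real-time RT-PCR with RTS3073 and normalized to mouse Ppia, was read in cortical brain and spinal cord 4 weeks post dosing. Dosing was a single ICV bolus of 300 μg per knock-in mouse; values are % of PBS-treated animals.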

human APOE RNA [3] = assay: Duration of action study in APOE C57BL/6NTac-Apoeem7250 knock-in mice (Example 16); type: in vivo; conditions: 300 μg ICV
Method: Modified oligonucleotides described above were tested in the APOE C57BL/6NTac-Apoeem7250 knock-in mouse model described above.
APOE C57BL/6NTac-Apoeem7250 knock-in mice were divided into groups of 2-4 mice each. Each mouse received a single intracerebroventricular (ICV) bolus of 300 μg of modified oligonucleotide. A group of 2-4 mice received a single ICV bolus with PBS as a negative control.
Mice were sacrificed at various timepoints as indicated in the table below and RNA was extracted from cortical brain tissue and spinal cord for quantitative real-time RT-PCR analysis of RNA expression of APOE using primer probe set RTS3073 (described herein above). APOE RNA levels were normalized to mouse Ppia. Mouse Ppia was amplified using primer probe set m_cyclo24 (described herein above). Results are presented as percent human APOE RNA relative to the amount of human APOE RNA in PBS treated animals, (% control). Each experiment is identified in separate tables below.

human APOE RNA [4] = assay: Activity in APOE C57BL/6NTac-Apoeem7250 knock-in mice, single ICV bolus, 8 weeks (Example 11); type: in vivo; conditions: single ICV bolus 300 μg, 8 weeks post treatment, normalized to mouse Ppia
How it was run: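 Cortical and spinal cord human APOE RNA quantified by RT-qPCR 8 weeks after a single 300 μg ICV dose in knock-in mice, Ppia-normalized. Values are percent of levels in PBS-treated animals.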

| Substance | APOE RNA (% UTC) (human APOE RNA [1]; 5 nM) | APOE RNA (% UTC) (human APOE RNA [1]; 13 nM) | APOE RNA (% UTC) (human APOE RNA [1]; 33 nM) | APOE RNA (% UTC) (human APOE RNA [1]; 82 nM) | APOE RNA (% UTC) (human APOE RNA [1]; 205 nM) | APOE RNA (% UTC) (human APOE RNA [1]; 512 nM) | APOE RNA (% UTC) (human APOE RNA [1]; 1,280 nM) | APOE RNA (% UTC) (human APOE RNA [1]; 3,200 nM) | APOE RNA (% UTC) (human APOE RNA [1]; 8,000 nM) | APOE RNA (% UTC) (human APOE RNA [1]; 20,000 nM) | IC50 (human APOE RNA [1]) [nM] | APOE RNA (% control) Cortex (human APOE RNA [2]) [% control] | APOE RNA (% control) Spinal Cord (human APOE RNA [2]) [% control] | APOE RNA (% control) Cortex (human APOE RNA [3]; 112 days post-dose) [% control] | APOE RNA (% control) Cortex (human APOE RNA [3]; 140 days post-dose) [% control] | APOE RNA (% control) Spinal Cord (human APOE RNA [3]; 112 days post-dose) [% control] | APOE RNA (% control) Spinal Cord (human APOE RNA [3]; 140 days post-dose) [% control] | APOE RNA (% control) Cortex (human APOE RNA [4]) [% control] | APOE RNA (% control) Spinal Cord (human APOE RNA [4]) [% control] |
| --- | --- | --- | --- | --- | --- | --- | --- | --- | --- | --- | --- | --- | --- | --- | --- | --- | --- | --- | --- |
| 1746790 (k[5mC]*dT[ms]kT*dG[ms]dG[ms]kT*dG[ms]dA[ms]dA[ms]dT*d[5mC]*dT*dT*dT*dA[ms]dT*kT*kA*dA[ms]kA; antisense) [Compound 1746790] | 104 | 133 | 94 | 112 | 89 | 63 | 20 | 24 | 15 | 8 | 750 | 53 | 61 | 75 | 77 | 62 | 108 |  |  |
| 1746789 (k[5mC]*dT[ms]kT*dG[ms]kG*dT[ms]dG[ms]dA[ms]dA[ms]dT*d[5mC]*dT*dT*dT*dA[ms]dT*kT*kA*dA[ms]kA; antisense) [Compound 1746789] | 98 | 106 | 84 | 102 | 76 | 64 | 37 | 19 | 10 | 4 | 830 | 60 | 41 | 63 | 75 | 83 | 80 |  |  |
| 1746799 (k[5mC]*dT[ms]kT*dG[ms]kG*dT[ms]dG[ms]dA[ms]dA[ms]dT*d[5mC]*dT*dT*dT*dA[ms]dT*kT*dA[ms]kA*kA; antisense) [Compound 1746799] | 115 | 130 | 153 | 125 | 106 | 84 | 52 | 23 | 24 | 33 | 1740 | 47 | 42 | 46 | 70 | 78 | 66 | 45 | 39 |
| 1746800 (k[5mC]*dT[ms]kT*dG[ms]dG[ms]kT*dG[ms]dA[ms]dA[ms]dT*d[5mC]*dT*dT*dT*dA[ms]dT*kT*dA[ms]kA*kA; antisense) [Compound 1746800] | 108 | 111 | 137 | 115 | 97 | 77 | 87 | 39 | 35 | 8 | 3270 | 41 | 40 | 52 | 75 | 88 | 58 | 40 | 30 |
| 1746803 (k[5mC]*dT[ms]dT[ms]kG*dG[ms]kT*dG[ms]dA[ms]dA[ms]dT*d[5mC]*dT*dT*dT*dA[ms]dT*kT*dA[ms]kA*kA; antisense) [Compound 1746803] | 93 | 83 | 84 | 114 | 68 | 61 | 31 | 29 | 22 | 39 | 1100 | 51 | 39 | 54 | 73 | 74 | 82 |  |  |
| 1746801 (k[5mC]*dT[ms]dT[ms]kG*kG*dT[ms]dG[ms]dA[ms]dA[ms]dT*d[5mC]*dT*dT*dT*dA[ms]dT*kT*dA[ms]kA*kA; antisense) [Compound 1746801] | 93 | 98 | 114 | 99 | 76 | 56 | 33 | 11 | 14 | 2 | 670 | 58 | 44 | 47 | 67 | 70 | 138 |  |  |
| 1747050 (k[5mC]*kT*kT*dG[ms]dG[ms]kT*dG[ms]dA[ms]dA[ms]dT*d[5mC]*dT*dT*dT*dA[ms]dT*kT*dA[ms]dA[ms]kA; antisense) [Compound 1747050] | 182 | 135 | 115 | 111 | 110 | 76 | 49 | 31 | 14 | 10 | 1540 | 29 | 45 | 63 | 74 | 93 | 86 | 36 | 23 |
